Measurements: US20070015771A1, “Lonidamine analogs” (Threshold pharmaceuticals, Inc., priority 2004, published 2007)
Like-named read-outs stand apart in the source and are kept apart here.

Columns and labels:
PWR-1E cells [1] = experiment: Antiproliferation assay 3 days, PWR-1E cells (Example 49); assay type: cell-based; conditions: read-out: PWR1e cell line IC50
Protocol: (§1) To determine the effect of lonidamine analogs thereof on cell proliferation, the antiproliferative activity of these compounds was tested in a multi-well Alamar Blue based assay (at 3 days). Cell growth in the presence and absence of the test compound was compared, as measured by a fluoresence plate reader at excitation 550 nm and emission 590 nm (see Biosource International Inc., Tech Application Notes, Use of Alamar Blue in the measurement of Cell Viability and Toxity, Determining IC50). The following cell lines were tested: PWR-1E cells ((ATCC CRL-11611), 3500 cells/well/200 μl in Keratinocyte SFM medium (Gibco Products, Invitrogen Corporation, Carlsbad, Calif.)); DU-145 cells ((ATCC HTB-81), 4000 cells/well/200 μl in MEM Eagles medium (ATCC, Manassas, Va.)); PC3 cells ((ATCC CRL-1435), 4000 cells/200 μl in Modified HAM's F12 medium (ATCC, Manassas, Va.)); PNt2 cells ((Sigma-Aldrich, 95012613-1 VL), 4000 cells/well/200 μl in RPMI medium (Gibco Products, Invitrogen Corporation, Carlsbad, Calif.), BPH-1 ((DSMZ ACC-143), 4000 cells/well/200 μl in RPMI medium (Gibco Products, Invitrogen Corporation, Carlsbad, Calif), and NCI-H460 cells ((ATCC HTB-177), 4000 cells/well/200 μl in RPMI medium (Gibco Products, Invitrogen Corporation, Carlsbad, Calif.)). The cells were seeded in a 96 well plate in a medium specified above. After 24 hours, these plates were divided into 2 groups—Control group and 3 day treatment group. A test compound was added to each plate in the treatment groups at concentrations of […] as tabulated in Table 1 (in 2 μl 1 of 100% DMSO, final DMSO concentration 1% in all wells). For NCI-H460 cells, test compounds were added to each plate in the treatment groups at concentrations of 600, 300, 100, 30, 10, 3, and 1 μM (in 2 μl of 100% DMSO, final DMSO concentration 1% in all wells). The cells in the 3 day treatment group were incubated for 3 days, followed by staining with AlamarBlue. In the Control group, AlamarBlue was added to the plate at (i) day 0 and (ii) day 3 and measured to establish the control reading. […] For the NCI-H460 cells, the capacity of the cells to proliferate was measured 5 hours after addition of AlamarBlue using the same fluorescence plate reader as stated above.

H460 cells = experiment: Antiproliferation assay (Alamar Blue), H460 cells; assay type: cell-based
Protocol: (§2) To determine the effect of lonidamine and analogs thereof on cell proliferation, the antiproliferative activity of these compounds was tested in a multi-well Alamar Blue based assay (at 2 h and 3 days). Cell growth in the presence and absence of the test compound (compounds 1-22) was compared, as measured by a fluorescence plate reader at excitation 550 nm and emission 590 nm (see Biosource International Inc., Tech Application Notes, Use of Alamar Blue in the measurement of Cell Viability and Toxicity, Determining IC50). H460 cells (ATCC HTB-177 ([…]), 4,000 cells/well/200 μl) and LNCap cells (ATCC CRL-1740, 6,000 cells/well/200 μl) were seeded in a 96 well plate in RPMI medium (Invitrogen Corporation, Carlsbad, Calif.). After 24 hours, these plates were divided into 3 groups—Control group, 2 h treatment group and 3 day treatment group. In the 2 h treatment group, after 2 h the cells were rinsed to remove the test compound and incubated for 3 days, followed by staining with AlamarBlue. The cells in the 3 day treatment group were incubated for 3 days, followed by staining with AlamarBlue. In the Control group, AlamarBlue was added to the plate at (i) day 0 and (ii) day 3 and measured to establish the control reading.

PWR-1E cells [2] = experiment: Antiproliferation assay, PWR-1E cells (Example 48); assay type: cell-based; conditions: read-out: IC50 PWR-1E cell
Protocol: as §2
The effect of lonidamine and analogs thereof on cell proliferation in PWR-1E cells (ATCC CRL-11611) was determined in an antiproliferative assay using PWR-1E cells (5000 cells/well) in Keratinocyte SFM medium (Gibco Products, Invitrogen Corporation, Carlsbad, Calif.) according to the procedure detailed in Example 47 above.

PC3 cells = experiment: Antiproliferation assay 3 days, PC3 cells; assay type: cell-based, human; conditions: 3 day treatment; read-out: PC-3 cell line IC50
Protocol: as §1

SH rat prostate = experiment: 5 day systemic administration in male SH rats, prostate; assay type: in vivo; set-up: inhibition in vivo: dose or concentration left out as unconfirmed; conditions: for Prostate shrinkage: male SH rats, oral daily for 5 days at 50 mg/ml, day 6; for inhibition in vivo: Rattus norvegicus, po, 144 h, read-out: Prostate shrinkage
Protocol: (§3) The effect of test compounds (lonidamine and lonidamine analogs) on the SH rat prostate was determined as follows. The test compound was orally administered daily for 5 days to male, SH rat, (n=6, 14 weeks old, Charles River Labs) at 50 mg/ml concentrations (as a 0.5% carboxymethylcellulose formulation). The control rats received an equal amount of the vehicle ([…]). Blood samples were collected 2 hours after administration on day 6, for pharmokinetic analysis of the compounds. On day 6 the rats were sacrificed and the entire prostate and the individual lobes (e.g., the ventral, dorso-lateral, and anterior lobes) were removed and weighed to measure absolute weights. Relative weights of prostate and individual lobes were calculated by dividing the absolute weight by the total body weight of the […]. Relative weights of the entire prostate, the dorsal prostate, and the ventral prostate were calculated by dividing the absolute weight by the total weight of the mouse. The histomorphology of the prostate was also analyzed and compared to that of the control or untreated prostate.

[3] = 5 day systemic administration in male SH rats, pharmacokinetic blood samples; assay type: in vivo, rat; conditions: oral daily for 5 days at 50 mg/ml, blood 2 hours after administration; for concentration at 2 h: rat, in vivo, read-out: PK
Protocol: as §3

LNCaP cells = experiment: Antiproliferation assay (Alamar Blue), LNCaP cells; assay type: cell-based, human; conditions: 3 day treatment, read-out: GI50 LNCaP cell 3days
Protocol: as §2

mouse prostate = experiment: Mouse study, 10 day effect of Compound 3 on prostate; assay type: in vivo; conditions: mice
Protocol: (§4) The 10 day effect of Compound 3 on the mouse prostate and its 5 day effect on mouse testis were determined as in Example 51 by using 10 mice per experiment group and the results are illustrated graphically in FIGS. 14-18.

PNt2 cells = experiment: Antiproliferation assay 3 days, PNt2 cells; assay type: cell-based; conditions: 3 day treatment; read-out: PNT2c cell line IC50
Protocol: as §1

mouse testis = experiment: Mouse study, 5 day effect of Compound 3 on testis; assay type: in vivo; conditions: mice
Protocol: as §4

DU-145 cells = experiment: Antiproliferation assay 3 days, DU-145 cells; assay type: cell-based; conditions: 3 day treatment; read-out: Du-145 cell line IC50
Protocol: as §1

BPH-1 = experiment: Antiproliferation assay 3 days, BPH-1 cells; assay type: cell-based; conditions: 3 day treatment; read-out: BPH-1 cell line IC50
Protocol: as §1

testes = experiment: 5 day systemic administration in male SH rats, testis; assay type: in vivo, rat; set-up: inhibition in vivo: dose or concentration left out as unconfirmed; conditions: for Testis shrinkage: male SH rats, oral daily for 5 days at 50 mg/ml, day 6; for inhibition in vivo: Rattus norvegicus, po, 144 h, read-out: Testis shrinkage
NCI-H460 cells = experiment: Antiproliferation assay 3 days, NCI-H460 cells; assay type: cell-based; conditions: Homo sapiens, NCI-H460, 72 h, read-out: NCI-H460 cell line IC50
Protocol: as §1

[4] = 3 day treatment, read-out: GI50 H460 cell 3 days
[5] = read-out: GI50 H460 cell 2 hr, 2 h treatment then 3 days incubation

## O=C(NO)c1nn(Cc2ccccc2)c2ccccc12 [Compound 2]
PWR-1E cells [1]; 3 day treatment
  IC50: 18 µM
H460 cells; [4]
  GI50: 31.6 µM
H460 cells; [5]
  GI50: 400 µM
PWR-1E cells [2]
  IC50: 18 µM

## O=C(O)c1nn(Cc2c(Cl)cccc2Cl)c2ccccc12 [Compound 3]
PWR-1E cells [1]; 3 day treatment
  IC50: 69 µM
PC3 cells
  IC50: 191 µM
SH rat prostate
  Prostate shrinkage: −2.9%
[3]
  PK: 243 µg/mL
LNCaP cells
  GI50: 180 µM
H460 cells; [4]
  GI50: 250 µM
H460 cells; [5]
  GI50: 398 µM
Mouse prostate
  absolute anterior prostate weight (FIG. 16): reduction
  absolute dorsal prostate weight (FIG. 15): reduction
  absolute ventral prostate weight (FIG. 14): reduction
PNt2 cells
  IC50: 257 µM
Mouse testis
  absolute left testis weight (FIG. 18): reduction
  absolute right testis weight (FIG. 17): reduction
DU-145 cells
  IC50: 224 µM
PWR-1E cells [2]
  IC50: 25 µM
BPH-1
  IC50: 215 µM
testes
  Testis shrinkage: 0.4%

## CS(=O)(=O)NC(=O)c1nn(Cc2ccc(Cl)cc2Cl)c2ccccc12 [Compound 4]
LNCaP cells
  GI50: 178 µM
H460 cells; [4]
  GI50: 158 µM
H460 cells; [5]
  GI50: 281 µM
PWR-1E cells [2]
  IC50: 18 µM

## NC(=O)c1nn(Cc2ccc(Cl)cc2Cl)c2ccccc12 [Compound 5]
PWR-1E cells [1]; 3 day treatment
  IC50: 5.5 µM
SH rat prostate
  Prostate shrinkage: −8.1%
[3]
  PK: 12 µg/mL
LNCaP cells
  GI50: 20 µM
H460 cells; [4]
  GI50: 20 µM
H460 cells; [5]
  GI50: 40 µM
PWR-1E cells [2]
  IC50: 4 µM
testes
  Testis shrinkage: −3.5%

## O=C(O)c1nn(Cc2ccc(Cl)cc2Cl)c2ccccc12 [Compound 12]
PWR-1E cells [1]; 3 day treatment
  IC50: 31 µM
PC3 cells
  IC50: 195 µM
SH rat prostate
  Prostate shrinkage: 17%
[3]
  PK: 153 µg/mL
LNCaP cells
  GI50: 125 µM
H460 cells; [4]
  GI50: > 400 µM
H460 cells; [5]
  GI50: 251 µM
PNt2 cells
  IC50: 198 µM
DU-145 cells
  IC50: 214 µM
PWR-1E cells [2]
  IC50: 20 µM
BPH-1
  IC50: 230 µM
testes
  Testis shrinkage: 42%

## O=C(Nc1cccnc1)c1nn(Cc2ccc(Cl)cc2Cl)c2ccccc12 [Compound 51]
SH rat prostate
  Prostate shrinkage: 8.7%
[3]
  PK: 0.45 µg/mL
testes
  Testis shrinkage: 2.2%

## CONC(=O)c1nn(Cc2ccc(Cl)cc2Cl)c2ccccc12 [Compound 53]
SH rat prostate
  Prostate shrinkage: 6.9%
[3]
  PK: 1 µg/mL
testes
  Testis shrinkage: 9.2%

## O=C(NO)c1nn(Cc2ccc(Cl)cc2Cl)c2ccc(Cl)cc12 [Compound 54]
PWR-1E cells [1]; 3 day treatment
  IC50: 1.3 µM
SH rat prostate
  Prostate shrinkage: 6.8%
[3]
  PK: 120 µg/mL
testes
  Testis shrinkage: 0.3%

## CN(O)C(=O)c1nn(Cc2ccc(Cl)cc2Cl)c2ccccc12 [Compound 56]
PWR-1E cells [1]; 3 day treatment
  IC50: 2.6 µM
PC3 cells
  IC50: 4 µM
PNt2 cells
  IC50: 1.25 µM
DU-145 cells
  IC50: 3.25 µM
BPH-1
  IC50: 1.65 µM

## OCc1nn(Cc2ccc(Cl)cc2Cl)c2ccccc12 [Compound 58]
SH rat prostate
  inhibition in vivo: 12.9%
[3]
  concentration at 2 h: 0 µg/mL
testes
  inhibition in vivo: 26.5%

## O=C(O)c1nn(Cc2ccc(Cl)cc2)c2ccc(Cl)cc12 [Compound 64]
PWR-1E cells [1]; Homo sapiens, PWR-1E, 72 h
  IC50: > 30 µM
SH rat prostate
  inhibition in vivo: -0.4%
[3]
  concentration at 2 h: 614 µg/mL
NCI-H460 cells
  IC50: 159 µM
testes
  inhibition in vivo: -1.3%

## O=C(O)c1cn(Cc2ccc(Cl)cc2Cl)c2ccccc12 [Compound 78]
PWR-1E cells [1]; Homo sapiens, PWR-1E, 72 h
  IC50: 22 µM
SH rat prostate
  inhibition in vivo: 10.1%
NCI-H460 cells
  IC50: 89 µM
testes
  inhibition in vivo: 5.7%

## O=C(O)c1nn(Cc2ccc(Cl)c(Cl)c2)c2ccccc12 [Compound 82]
PWR-1E cells [1]; Homo sapiens, PWR-1E, 72 h
  IC50: 36 µM
SH rat prostate
  inhibition in vivo: 5%
NCI-H460 cells
  IC50: 128 µM
testes
  inhibition in vivo: -1.1%

## O=C(O)c1nn(Cc2cc(Cl)ccc2Cl)c2ccccc12 [Compound 83]
PWR-1E cells [1]; Homo sapiens, PWR-1E, 72 h
  IC50: 38 µM
SH rat prostate
  inhibition in vivo: 31.7%
NCI-H460 cells
  IC50: 126 µM
testes
  inhibition in vivo: 48%

## N#Cc1ccc(Cn2nc(C(=O)O)c3ccccc32)c(Cl)c1 [Compound 97]
PWR-1E cells [1]; Homo sapiens, PWR-1E, 72 h
  IC50: 135 µM
SH rat prostate
  inhibition in vivo: 5.5%
[3]
  concentration at 2 h: 0 µg/mL
NCI-H460 cells
  IC50: > 300 µM
testes
  inhibition in vivo: 0.9%
